Assay results from patent US20090062359A1 (AlgoRx, priority 2002, published 2009).
Where “and” joins values, the source holds several entries; their conditions need not be identical. Equal values may be shown once.

Key:
[1] = system: animal models of inflammatory and neuropathic pain; settings: administered locally; formalin test and spinal nerve ligation; cited from earlier work
[2] = system: subjects undergoing transpositional osteotomy (bunionectomy); assay: Bunionectomy efficacy study (Phase II): VAS pain at the operation site and rescue analgesia; format: in vivo, human; settings: for VAS pain score, mean +/− SEM: 1000 μg into the wound, n = 11
Experimental: The primary efficacy endpoint was the proportion of subjects in each treatment group requiring opioid analgesia in the first 24 hours post-operatively. The proportions were compared amongst treatment groups using the Cochran-Haenszel test. Secondary efficacy end points included: i) proportion of subjects in each treatment group requiring opioid analgesia in the first 36 hour period post-operatively (Similarly, the proportions were compared amongst treatment groups using the Cochran-Haenszel test); ii) proportion of subjects in each treatment group requiring opioid analgesia in the 10 day period post-operatively (Similarly, the proportions were compared amongst treatment groups using the Cochran-Haenszel test); iii) time to first usage of opioid analgesia in each treatment group (a survival analysis approach will be used: the product-limit (Kaplan-Meier) method will be applied to time to first usage of opioid analgesia. The median time to first usage of opioid analgesia will be estimated in both treatment groups. Pairwise comparisons will be performed to test for equality of the survival curves between the 2 treatment groups using both the log-rank and the Wilcoxon test); iv) total usage of analgesia in each treatment group (the total usage of analgesia will be compared by an analysis of variance with treatment and center as independent variables. A pairwise comparison will be performed between the treatment groups); and v) VAS assessment of pain at the site of operation in each treatment group (The VAS score at each time point will be compared by an analysis of variance with treatment and center as independent variables. A pairwise comparison will be performed between the treatment groups). […] The efficacy analysis was performed on the data obtained ten days postoperatively. The safety analysis was performed based on the safety data for the entire study, including the 6 week and 12 week follow-up periods. The blind was broken at the time the efficacy analysis was performed. However, the individual treatment assignment was available to the statistical analysis group only. All other personnel involved in the study, including the Investigator, study monitor and proprietary staff, remained blinded until the entire study was completed.
The study was designed to include 40 evaluation subjects. […] Each subject had six (6) study visits: a Screening Day (Day −28 to −1), an Operation Day (Day 0), and four (4) Follow-up visits (scheduled for Days 3, 10 and weeks 6 and 12).
On Operation Day (Day 0) the following was performed: a) Pre-operation: Prior to the initiation of an ankle block, inclusion/exclusion criteria assessment was performed. […] Immediately prior to wound closure, the Investigator slowly dripped the study medication (4 mL) from a syringe into the wound, ensuring even tissue exposure. The wound was then be closed according to normal practices and procedures.
In the 24 hours following administration of study medication, vital signs (supine pulse rate and blood pressure) were recorded at 1, 2, 4 and 24 hours post administration. VAS assessment of pain at the operation site was performed at 1, 4, 8, 12 and 24 hours post administration. In those instances where VAS measurements coincide with blood sampling procedures, the VAS assessment was performed first. […] The quantity of each blood sample was 10 mL. […] Adverse events were spontaneously reported by the subject and recorded. […]

[3] = system: subjects with osteoarthritis of the knee; assay: Osteoarthritis of the knee safety study (Phase 1): safety, tolerability and VAS pain after intra-articular infiltration; format: in vivo, human; settings: for patients reporting transient burning pain immediately following instillation: after 2% lignocaine
Experimental: The primary objective of the study was to evaluate the safety and tolerability of intra-articular capsaicin, when co-administered with intra-articular local anesthetic, compared to placebo, in subjects with end-stage osteoarthritis of the knee, already scheduled to receive knee replacements.
The study was designed to include 16 evaluation subjects. […] Sixteen subjects completed the study.
Patients were treated randomly and in double-blind fashion in four treatment groups, with each group having a progressively longer interval between the intra-articular administration of study medication and subsequent total knee replacement (2, 4, 7, and 14 days). […] Gross and microscopic pathology analysis was completed for each treatment group before the next treatment group was treated.
Each subject had 3 study visits: a Screening Day (Day −7 to −1), the Treatment Day (Day 0), and a Post-Treatment Day (scheduled for Day +2, +4, +7, or +14). On the Treatment Day the subject was randomized, pre-treatment evaluation was performed. The patients were brought into the procedure room, and a VAS pain score was taken (0 mm—no pain, 100 mm—extreme pain). Once the patient had marked his or her pain on the card, he/she was prepped for knee cannulation. Once the cannula was placed, the patient received by intra-articular infiltration, 3 mg/kg (maximum dose of 200 mg) of 2% lignocaine into the knee scheduled to be replaced.
VAS pain scores as well as verbal reports were taken immediately following administration, as well as prior to knee replacement surgery. No subjects discontinued from the study due to adverse events.
On the Post-Treatment Day, study evaluation was performed followed by the scheduled knee replacement, with intra-operative bone and soft tissue biopsies performed for subsequent examination. […] This therefore left the 3 placebo and 9 active patients from the 4 day, 7 day, and 14 day cohorts.

[4] = human, in vivo, 300 ug
Experimental: The pharmacokinetic parameters of Cmax, Tmax, AUC(0−tlast) and t½ were evaluated.

rats = settings: systemic, cited from earlier work
[5] = cited from earlier work
patients = settings: Langman et al, Lancet 1994; cited from earlier work

CN(C)CCC=C1c2ccccc2CCc2ccccc21 [amitriptyline]
local antinociceptive action [1]: produced local antinociceptive actions

CNCCCN1c2ccccc2CCc2ccccc21 [desipramine]
local antinociceptive action [1]: produced local antinociceptive actions

COc1cc(CNC(=O)CCCC/C=C/C(C)C)ccc1O [purified capsaicin, N-(4-hydroxy-3-methoxybenzyl)-8-methylnon-trans-6-enamide]
study subjects requiring rescue (opioid rescue) ([2]; 1000 μg prior to wound closure, within 72 hours, n=11): 45%
VAS pain score, mean +/− SEM ([2]; 8 hr): 5.5 +/− 2.3
VAS pain score, mean +/− SEM ([2]; 12 hr): 8.2 +/− 3.8
VAS pain score, mean +/− SEM ([2]; 24 hr): 1.9 +/− 1.0
VAS pain score, mean +/− SEM ([2]; 48 hr): 5.9 +/− 2.5
patients reporting transient burning pain immediately following instillation ([3]; 10 μg capsaicin intra-articular): 0 of 4
patients reporting transient burning pain immediately following instillation ([3]; 100 μg capsaicin intra-articular): 1 of 4
duration of post-administration (hyper)algesic pain ([3]; 100 μg dose group, single subject): 9 min
patients reporting transient burning pain immediately following instillation ([3]; 300 μg capsaicin intra-articular): 4 of 4
duration of post-administration (hyper)algesic pain ([3]; 300 μg dose group, individual subjects): 17 minutes and 25 minutes (2×) and 42 minutes
tolerability ([3]; 10, 100 and 300 μg intra-articular): well tolerated at all dose levels
treatment related systemic side effects ([3]; all dose levels): No treatment related systemic side effects were seen
gross and microscopic pathology ([3]; all dose levels, knee tissue at replacement): normal
onset of post-administration (hyper)algesia after administration ([3]; all episodes, 100 μg and 300 μg dose groups): ≤ 5 min
effect on proprioception at the injected knee ([3]; any dose group at any time point): no discernable effect
average duration of post injection hyperalgesia ([3]; burning sensation, 100 μg and 300 μg dose groups): less than thirty minutes
reduction of VAS pain score, before administration versus day of surgery ([3]; capsaicin group (9 active patients, 10-300 μg), 4 day, 7 day and 14 day cohorts): 62±14%
treatment related indication of efficacy (VAS) ([3]; dose levels 10 μg, 100 μg and 300 μg): No clear treatment related indication of efficacy
AUC(0−tlast) [4]: 498.83 pg·h/mL
effect on radiation induced hyperalgesia (rats; final doses of 25 mg/kg or less prior to ultra violet radiation): prevented radiation induced hyperalgesia
effect on pain threshold (rats; final doses of 50 mg/kg or greater): pain threshold elevated
solubility in organic solvents ([5]; alcohol, ether, benzene and chloroform): freely soluble
solubility in water ([5]; water): practically insoluble

CN1C(C(=O)Nc2ccccn2)=C(O)c2ccccc2S1(=O)=O [piroxicam]
patients experiencing gross bleeding and ulceration (patients): up to 4%
